Data as given in ChEMBL document CHEMBL4428134, “Discovery of AZD2716: A Novel Secreted Phospholipase A2 (sPLA2) Inhibitor for the Treatment of Coronary Artery Disease” (ACS Med Chem Lett, 2016).
In brackets after ≈: the same amount, converted by molar mass. Activity calls are given as the source filed them. The rule behind the calls is not given here.

Legend:
[1] = molecular target: T1, Phospholipase A2, membrane associated (Homo sapiens, UniProt P14555); test: (§1) Inhibition of recombinant sPLA2-2A (unknown origin) using 1-palmitoyl-2-oleoyl-sn-glycero-3-phosphocholine as substrate preincubated for 10 mins followed by substrate addition measured after 60 mins by colorimetric method
T1 sequence (P14555 whole entry): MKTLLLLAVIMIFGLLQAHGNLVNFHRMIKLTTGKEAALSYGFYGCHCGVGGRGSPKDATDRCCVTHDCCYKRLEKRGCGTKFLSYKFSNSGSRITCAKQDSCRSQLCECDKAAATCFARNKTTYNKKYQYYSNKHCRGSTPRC

[2] = molecular target: T2, Secretory phospholipase A2 (Homo sapiens) (UniProt Q5R387+Q9NZK7+P14555+Q9BZM2+Q9UNK4+P39877+O15496+P04054+Q9NZ20+Q9BZM1+Q9BX93); test: Inhibition of sPLA2 in human plasma using 1-Hexadecanoyl-2-(1-pyrenedecanoyl)-sn-glycero-3-phosphomethanol as substrate preincubated for 10 mins followed by substrate addition measured after 90 mins by fluorescence assay; assay type: cell-free
[3] = Inhibition of recombinant sPLA2-5 (unknown origin) using 1-palmitoyl-2-oleoyl-sn-glycero-3-phosphocholine as substrate preincubated for 10 mins followed by substrate addition measured after 60 mins by colorimetric method; design: species or system Homo sapiens
[4] = molecular target: T3, Group 10 secretory phospholipase A2 (Homo sapiens, UniProt O15496); test: Inhibition of recombinant sPLA2-10 (unknown origin) using 1-palmitoyl-2-oleoyl-sn-glycero-3-phosphocholine as substrate preincubated for 10 mins followed by substrate addition measured after 60 mins by colorimetric method
T3 sequence (O15496 whole entry): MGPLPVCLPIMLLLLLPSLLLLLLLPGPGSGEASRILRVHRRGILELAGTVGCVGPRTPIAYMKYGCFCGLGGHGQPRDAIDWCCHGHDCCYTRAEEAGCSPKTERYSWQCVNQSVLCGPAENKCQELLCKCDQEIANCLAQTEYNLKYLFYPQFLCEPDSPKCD

[5] = molecular target: T2, Secretory phospholipase A2 (Homo sapiens); test: Inhibition of sPLA2 in human plasma at 25 uM using 1-Hexadecanoyl-2-(1-pyrenedecanoyl)-sn-glycero-3-phosphomethanol as substrate preincubated for 10 mins followed by substrate addition measured after 90 mins by fluorescence assay; assay type: cell-free
[6] = Intrinsic clearance in human hepatocytes at 1 uM assessed per million cells measured up to 60 mins; assay type: ADME, cell-based, Hepatocyte; conditions: 1 h
[7] = molecular target: Solute carrier organic anion transporter family member 1B1 (Homo sapiens, UniProt Q9Y6L6); test: Inhibition of human OATP1B1 expressed in HEK293 cells assessed as reduction in […] uptake at 25 uM; assay type: cell-based; conditions: hek293, 25 µM
[8] = AUC (0 to infinity) in mouse at 50 umol/kg, po; assay type: ADME; design: dose 50 umol/kg, route oral, time infinity; conditions: in vivo
[9] = Volume of distribution at steady state in mouse at 10 umol/kg, iv or 50 umol/kg, po; assay type: ADME, organism-based; conditions: in vivo
[10] = Oral bioavailability in mouse at 50 umol/kg; assay type: ADME, organism-based; conditions: in vivo
[11] = AUC (0 to infinity) in Sprague-Dawley rat at 8 umol/kg, po; assay type: ADME; design: dose 8 umol/kg, time infinity, route oral; conditions: in vivo
[12] = Volume of distribution at steady state in Sprague-Dawley rat at 2 umol/kg, iv or 8 umol/kg, po; assay type: ADME, organism-based; conditions: in vivo
[13] = Oral bioavailability in Sprague-Dawley rat at 8 umol/kg; assay type: ADME, organism-based; conditions: in vivo
[14] = AUC (0 to infinity) in beagle dog at 3 umol/kg, po; assay type: ADME, Canis lupus familiaris; design: dose 3 umol/kg, route oral, time infinity; conditions: in vivo
[15] = Volume of distribution at steady state in beagle dog at 1 umol/kg, iv or 3 umol/kg, po; assay type: ADME, organism-based, Canis lupus familiaris; conditions: in vivo
[16] = Oral bioavailability in beagle dog at 3 umol/kg; assay type: ADME, organism-based, Canis lupus familiaris; conditions: in vivo
[17] = AUC (0 to infinity) in cynomolgus monkey at 15.8 umol/kg, po; assay type: ADME, Macaca fascicularis; design: dose 15.8 umol/kg, route oral, time infinity; conditions: in vivo
[18] = Volume of distribution at steady state in cynomolgus monkey at 5 umol/kg, iv or 15.8 umol/kg, po; assay type: ADME, organism-based, Macaca fascicularis; conditions: in vivo
[19] = Oral bioavailability in cynomolgus monkey at 15.8 umol/kg; assay type: ADME, organism-based, Macaca fascicularis; conditions: in vivo
[20] = molecular target: Secretory phospholipase A2; test: Inhibition of sPLA2 in human HepG2 cells; assay type: cell-based
[21] = molecular target: Secretory phospholipase A2; test: Inhibition of sPLA2 in atherosclerotic plaque from coronary artery disease patient; assay type: protein assay, Homo sapiens
Macaca fascicularis = species: Macaca fascicularis; test: Inhibition of sPLA2 in cynomolgus monkey plasma using 1-Hexadecanoyl-2-(1-pyrenedecanoyl)-sn-glycero-3-phosphomethanol as substrate preincubated for 10 mins followed by substrate addition measured after 90 mins by fluorescence assay; assay type: cell-free
Cynomolgus monkey = test: In vivo inhibition of sPLA2 in po dosed cynomolgus monkey plasma measured up to 24 hrs; assay type: functional, Macaca fascicularis
HepG2 = test: Inhibition of sPLA2-2A production in human HepG2 cells; assay type: functional, cell-based
[22] = Solubility of compound in pH 7.4 DMSO/HBSS after 24 hrs by LC-UV/MS analysis; assay type: physicochemical
[23] = Apparent permeability from apical to basolateral side in human Caco2 cells at pH 6.5; assay type: ADME, cell-based; conditions: caco-2, pH 6.5
[24] = molecular target: Voltage-gated inwardly rectifying potassium channel KCNH2 (Homo sapiens, UniProt Q12809); test: Inhibition of human ERG expressed in CHO cells by patch clamp assay; assay type: cell-based
[25] = molecular target: Sodium channel protein type 5 subunit alpha (Homo sapiens, UniProt Q14524); test: Inhibition of human Nav1.5 expressed in CHO cells by patch clamp assay; assay type: cell-based
[26] = Inhibition of human IKs channel expressed in CHO cells by patch clamp assay; assay type: cell-based
[27] = molecular target: A-type voltage-gated potassium channel KCND3 (Homo sapiens, UniProt Q9UK17); test: Inhibition of human Kv4.3 expressed in CHO cells by patch clamp assay; assay type: cell-based
[28] = molecular target: Voltage-dependent T-type calcium channel subunit alpha-1H (Homo sapiens, UniProt O95180); test: Inhibition of human Cav3.2 expressed in CHO cells by patch clamp assay; assay type: cell-based
[29] = molecular target: Voltage-dependent L-type calcium channel subunit alpha-1C (Homo sapiens, UniProt Q13936); test: Inhibition of human Cav1.2 expressed in CHO cells by patch clamp assay; assay type: cell-based
Cytochrome P450 1A2 = Cytochrome P450 1A2 (Homo sapiens, UniProt P05177); test: Inhibition of human recombinant CYP1A2; assay type: ADME
Cytochrome P450 2C8 = Cytochrome P450 2C8 (Homo sapiens, UniProt P10632); test: Inhibition of human recombinant CYP2C8; assay type: ADME
Cytochrome P450 3A4 = Cytochrome P450 3A4 (Homo sapiens, UniProt P08684); test: Inhibition of human recombinant CYP3A4; assay type: ADME
Cytochrome P450 2C9 = Cytochrome P450 2C9 (Homo sapiens, UniProt P11712); test: Inhibition of human recombinant CYP2C9; assay type: ADME
Cytochrome P450 2C19 = Cytochrome P450 2C19 (Homo sapiens, UniProt P33261); test: Inhibition of human recombinant CYP2C19; assay type: ADME
Cytochrome P450 2D6 = Cytochrome P450 2D6 (Homo sapiens, UniProt P10635); test: Inhibition of human recombinant CYP2D6; assay type: ADME
[30] = Volume of distribution at steady state in Sprague-Dawley rat at 2 umol/kg, iv or 4 umol/kg, po; assay type: ADME, organism-based; conditions: in vivo
[31] = Oral bioavailability in Sprague-Dawley rat at 4 umol/kg; assay type: ADME, organism-based; conditions: in vivo
[32] = Volume of distribution at steady state in beagle dog at 1 umol/kg, iv or 2 umol/kg, po; assay type: ADME, organism-based, Canis lupus familiaris; conditions: in vivo
[33] = Oral bioavailability in beagle dog at 2 umol/kg; assay type: ADME, organism-based, Canis lupus familiaris; conditions: in vivo
[34] = molecular target: Phospholipase A2, membrane associated (Homo sapiens) (UniProt P14555); test: as §1
[35] = Unbound fraction in human plasma; assay type: ADME, cell-free
Homo sapiens = species: Homo sapiens; test: Inhibition of recombinant sPLA2-5 (unknown origin) at 25 uM using 1-palmitoyl-2-oleoyl-sn-glycero-3-phosphocholine as substrate preincubated for 10 mins followed by substrate addition measured after 60 mins by colorimetric method

Sequence of Solute carrier organic anion transporter family member 1B1 (Q9Y6L6 whole entry): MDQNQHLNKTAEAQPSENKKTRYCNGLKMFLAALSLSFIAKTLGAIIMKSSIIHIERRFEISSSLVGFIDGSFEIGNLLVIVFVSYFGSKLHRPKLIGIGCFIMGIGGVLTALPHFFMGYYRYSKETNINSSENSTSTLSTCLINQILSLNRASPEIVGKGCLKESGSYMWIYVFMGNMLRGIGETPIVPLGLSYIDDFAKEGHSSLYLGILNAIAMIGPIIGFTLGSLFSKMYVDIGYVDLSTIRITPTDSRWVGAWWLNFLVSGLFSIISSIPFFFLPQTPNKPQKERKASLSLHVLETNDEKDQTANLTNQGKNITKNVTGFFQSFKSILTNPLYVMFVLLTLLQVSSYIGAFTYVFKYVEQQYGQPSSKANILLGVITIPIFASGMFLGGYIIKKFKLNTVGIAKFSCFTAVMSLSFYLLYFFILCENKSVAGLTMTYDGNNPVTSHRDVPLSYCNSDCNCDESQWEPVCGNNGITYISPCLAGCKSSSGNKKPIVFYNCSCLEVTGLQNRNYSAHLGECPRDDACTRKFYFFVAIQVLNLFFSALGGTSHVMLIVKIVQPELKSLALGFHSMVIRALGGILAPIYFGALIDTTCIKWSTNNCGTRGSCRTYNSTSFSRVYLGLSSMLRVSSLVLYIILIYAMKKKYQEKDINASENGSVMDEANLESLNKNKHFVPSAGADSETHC
Sequence of Voltage-gated inwardly rectifying potassium channel KCNH2 (Q12809 whole entry): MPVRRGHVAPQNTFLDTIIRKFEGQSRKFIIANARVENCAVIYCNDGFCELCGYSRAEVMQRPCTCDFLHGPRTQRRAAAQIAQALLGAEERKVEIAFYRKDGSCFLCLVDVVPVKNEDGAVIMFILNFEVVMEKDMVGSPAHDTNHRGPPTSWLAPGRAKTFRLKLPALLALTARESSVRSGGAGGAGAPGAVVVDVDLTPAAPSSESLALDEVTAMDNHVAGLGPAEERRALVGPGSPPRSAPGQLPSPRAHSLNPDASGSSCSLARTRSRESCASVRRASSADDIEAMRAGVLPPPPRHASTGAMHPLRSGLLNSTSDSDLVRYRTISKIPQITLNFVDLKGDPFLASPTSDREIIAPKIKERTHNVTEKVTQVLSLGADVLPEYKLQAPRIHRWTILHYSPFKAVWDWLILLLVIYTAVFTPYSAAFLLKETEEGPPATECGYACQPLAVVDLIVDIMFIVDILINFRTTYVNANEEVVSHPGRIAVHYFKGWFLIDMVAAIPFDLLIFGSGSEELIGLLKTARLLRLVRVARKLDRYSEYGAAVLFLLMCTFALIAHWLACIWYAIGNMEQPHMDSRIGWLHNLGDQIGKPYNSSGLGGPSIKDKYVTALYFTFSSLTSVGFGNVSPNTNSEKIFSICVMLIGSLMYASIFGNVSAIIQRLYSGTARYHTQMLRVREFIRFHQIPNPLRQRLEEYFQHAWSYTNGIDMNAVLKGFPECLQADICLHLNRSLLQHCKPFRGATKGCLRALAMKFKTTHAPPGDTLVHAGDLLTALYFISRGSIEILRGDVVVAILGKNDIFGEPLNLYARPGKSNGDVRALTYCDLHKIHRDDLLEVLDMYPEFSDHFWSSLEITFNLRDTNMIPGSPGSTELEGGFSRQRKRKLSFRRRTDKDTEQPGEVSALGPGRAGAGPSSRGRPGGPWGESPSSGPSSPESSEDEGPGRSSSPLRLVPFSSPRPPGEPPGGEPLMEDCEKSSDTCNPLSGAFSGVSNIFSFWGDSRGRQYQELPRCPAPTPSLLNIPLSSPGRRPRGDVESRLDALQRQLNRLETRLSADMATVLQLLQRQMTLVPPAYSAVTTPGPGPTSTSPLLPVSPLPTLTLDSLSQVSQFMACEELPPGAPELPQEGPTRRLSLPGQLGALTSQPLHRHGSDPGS
Sequence of Voltage-dependent T-type calcium channel subunit alpha-1H (O95180 whole entry): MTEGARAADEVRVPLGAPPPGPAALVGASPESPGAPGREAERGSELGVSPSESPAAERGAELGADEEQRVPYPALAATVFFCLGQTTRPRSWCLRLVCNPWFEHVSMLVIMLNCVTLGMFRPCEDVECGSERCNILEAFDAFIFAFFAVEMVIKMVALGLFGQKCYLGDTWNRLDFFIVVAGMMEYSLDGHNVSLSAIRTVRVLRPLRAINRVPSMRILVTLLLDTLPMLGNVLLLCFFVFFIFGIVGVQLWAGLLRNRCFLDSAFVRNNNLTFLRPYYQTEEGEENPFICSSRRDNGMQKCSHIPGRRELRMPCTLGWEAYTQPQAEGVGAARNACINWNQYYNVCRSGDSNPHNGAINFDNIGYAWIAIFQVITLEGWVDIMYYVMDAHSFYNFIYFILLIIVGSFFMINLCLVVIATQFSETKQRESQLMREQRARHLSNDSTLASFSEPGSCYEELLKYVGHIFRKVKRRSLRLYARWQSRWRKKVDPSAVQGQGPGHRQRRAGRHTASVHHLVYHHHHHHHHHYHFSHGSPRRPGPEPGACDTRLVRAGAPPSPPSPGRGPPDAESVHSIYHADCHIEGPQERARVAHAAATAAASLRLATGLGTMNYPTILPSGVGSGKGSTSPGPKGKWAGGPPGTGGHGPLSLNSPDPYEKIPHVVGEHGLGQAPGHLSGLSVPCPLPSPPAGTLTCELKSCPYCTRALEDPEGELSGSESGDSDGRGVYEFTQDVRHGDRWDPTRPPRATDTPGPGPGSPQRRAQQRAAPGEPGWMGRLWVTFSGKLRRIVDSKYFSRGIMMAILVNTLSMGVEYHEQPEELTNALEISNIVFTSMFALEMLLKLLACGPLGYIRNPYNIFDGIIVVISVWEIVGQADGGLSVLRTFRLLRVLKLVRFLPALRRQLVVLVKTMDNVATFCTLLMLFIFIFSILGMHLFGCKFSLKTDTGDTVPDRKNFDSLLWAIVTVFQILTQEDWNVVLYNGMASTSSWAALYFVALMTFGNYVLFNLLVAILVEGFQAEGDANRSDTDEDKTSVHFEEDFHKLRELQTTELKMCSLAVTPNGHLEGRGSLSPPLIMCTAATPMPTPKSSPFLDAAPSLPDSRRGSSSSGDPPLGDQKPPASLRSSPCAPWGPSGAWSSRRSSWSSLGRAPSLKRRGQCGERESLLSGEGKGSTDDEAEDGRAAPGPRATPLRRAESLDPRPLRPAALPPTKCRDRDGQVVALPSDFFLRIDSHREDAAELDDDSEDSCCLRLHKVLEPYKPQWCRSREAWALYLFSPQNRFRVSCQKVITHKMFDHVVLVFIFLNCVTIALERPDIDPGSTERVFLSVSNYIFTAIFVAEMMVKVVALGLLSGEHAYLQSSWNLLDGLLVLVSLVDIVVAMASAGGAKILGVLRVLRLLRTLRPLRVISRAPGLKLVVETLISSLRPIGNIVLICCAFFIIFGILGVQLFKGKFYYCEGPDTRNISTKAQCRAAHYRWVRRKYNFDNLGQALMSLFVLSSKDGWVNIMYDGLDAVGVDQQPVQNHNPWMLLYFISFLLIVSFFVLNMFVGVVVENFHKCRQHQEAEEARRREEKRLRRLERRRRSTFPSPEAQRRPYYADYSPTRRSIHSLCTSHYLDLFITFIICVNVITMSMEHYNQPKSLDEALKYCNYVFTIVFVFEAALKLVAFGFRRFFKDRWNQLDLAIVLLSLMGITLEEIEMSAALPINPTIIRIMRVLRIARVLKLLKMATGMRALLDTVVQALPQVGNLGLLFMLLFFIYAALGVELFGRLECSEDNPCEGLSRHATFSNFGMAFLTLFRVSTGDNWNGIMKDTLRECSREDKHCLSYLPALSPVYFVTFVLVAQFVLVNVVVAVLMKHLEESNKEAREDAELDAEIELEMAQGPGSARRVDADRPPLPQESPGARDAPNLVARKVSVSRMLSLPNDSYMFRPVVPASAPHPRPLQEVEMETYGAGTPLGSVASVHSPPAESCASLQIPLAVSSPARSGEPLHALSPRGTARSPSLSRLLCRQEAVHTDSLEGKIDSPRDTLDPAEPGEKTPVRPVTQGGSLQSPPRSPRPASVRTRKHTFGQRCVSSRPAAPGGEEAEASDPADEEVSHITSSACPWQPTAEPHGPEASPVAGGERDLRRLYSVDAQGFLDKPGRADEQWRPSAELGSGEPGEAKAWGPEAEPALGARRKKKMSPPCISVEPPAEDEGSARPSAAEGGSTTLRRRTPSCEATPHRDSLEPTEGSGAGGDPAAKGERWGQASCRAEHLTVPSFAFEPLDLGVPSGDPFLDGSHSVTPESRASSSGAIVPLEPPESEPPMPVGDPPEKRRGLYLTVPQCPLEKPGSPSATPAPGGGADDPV
Sequence of A-type voltage-gated potassium channel KCND3 (Q9UK17 whole entry): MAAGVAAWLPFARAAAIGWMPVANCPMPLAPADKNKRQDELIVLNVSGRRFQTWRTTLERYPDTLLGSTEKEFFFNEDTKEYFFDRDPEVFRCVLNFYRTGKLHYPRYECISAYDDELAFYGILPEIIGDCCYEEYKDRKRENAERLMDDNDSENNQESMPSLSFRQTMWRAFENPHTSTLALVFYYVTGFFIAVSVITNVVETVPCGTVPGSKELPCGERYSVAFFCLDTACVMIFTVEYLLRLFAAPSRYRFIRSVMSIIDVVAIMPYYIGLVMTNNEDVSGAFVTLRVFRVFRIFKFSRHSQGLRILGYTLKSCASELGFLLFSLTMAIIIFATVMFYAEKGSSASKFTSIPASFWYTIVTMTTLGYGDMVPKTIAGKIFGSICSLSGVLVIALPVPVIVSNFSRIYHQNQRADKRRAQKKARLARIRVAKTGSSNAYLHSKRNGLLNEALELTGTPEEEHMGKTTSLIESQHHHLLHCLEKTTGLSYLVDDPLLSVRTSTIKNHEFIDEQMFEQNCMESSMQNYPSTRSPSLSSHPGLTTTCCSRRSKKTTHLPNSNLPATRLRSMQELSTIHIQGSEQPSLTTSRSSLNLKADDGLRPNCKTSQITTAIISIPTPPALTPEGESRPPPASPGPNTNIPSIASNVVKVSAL

NC(=O)c1ccc(Cc2ccccc2)cc1-c1cccc(CCCC(=O)O)c1
IC50 [1]: 110 nM
fIC50 [2]: 0.03 µM
IC50 [3]: 4100 nM
IC50 [4]: 5400 nM

NC(=O)c1ccc(Cc2ccccc2)cc1-c1cccc(C(=O)O)c1
IC50 [1]: 910 nM
IC50 [3]: > 10000 nM
inhibition [5]: inactive

CCC(Cc1cccc(-c2cc(Cc3ccccc3)ccc2C(N)=O)c1)C(=O)O (centres undefined)
IC50 [1]: 21 nM
fIC50 [2]: 0.0008 µM
IC50 [3]: 70 nM
IC50 [4]: 430 nM
CLint [6]: 25 µL/min/1e6 cells

C[C@H](Cc1cccc(-c2cc(Cc3ccccc3)ccc2C(N)=O)c1)C(=O)O
IC50 [1]: 10 nM
fIC50 [2]: 0.0001 µM
IC50 [3]: 40 nM
IC50 [4]: 400 nM
CLint [6]: 12 µL/min/1e6 cells
inhibition (INH) [7]: Not Active
AUC(0-inf) [8]: 69.7 µM·h
Vdss [9]: 2.8 L/kg
F [10]: 76.3%
AUC(0-inf) [11]: 70 µM·h
Vdss [12]: 0.21 L/kg
F [13]: 84%
AUC(0-inf) [14]: 284 µM·h
Vdss [15]: 0.15 L/kg
F [16]: 91%
AUC(0-inf) [17]: 71.3 µM·h
Vdss [18]: 1.1 L/kg
F [19]: 81%
IC50 [20]: < 14 nM
IC50 [21]: 56 nM
fIC50 (Macaca fascicularis): 1 nM
fIC80 (Cynomolgus monkey): 13 nM
inhibition (Cynomolgus monkey; Macaca fascicularis): Dose-dependent effect
IC50 (HepG2): 176 nM

NC(=O)c1ccc(Cc2ccccc2)cc1-c1cccc(OCC(=O)O)c1
IC50 [1]: 190 nM
IC50 [4]: 3700 nM

C[C@@H](Cc1cccc(-c2cc(Cc3ccccc3)ccc2C(N)=O)c1)C(=O)O
IC50 [1]: 38 nM
IC50 [3]: 1200 nM
IC50 [4]: 3800 nM
CLint [6]: 9.3 µL/min/1e6 cells

NC(=O)c1ccc(Cc2ccccc2)cc1-c1cccc(CCC(=O)O)c1
IC50 [1]: 12 nM
fIC50 [2]: 0.007 µM
IC50 [3]: 360 nM
IC50 [4]: 280 nM
solubility kinetic at 24 h [22]: 98 µM (≈ 35.2 µg/mL)
Papp [23]: 40.1 ×10⁻⁶ cm/s
CLint [6]: 5.2 µL/min/1e6 cells
IC50 [24]: > 33300 nM
IC50 [25]: > 33300 nM
IC50 [26]: > 33300 nM
IC50 [27]: > 33300 nM
IC50 [28]: > 33300 nM
IC50 [29]: > 33300 nM
IC50 (Cytochrome P450 1A2): > 20000 nM
IC50 (Cytochrome P450 2C8): > 20000 nM
IC50 (Cytochrome P450 3A4): > 20000 nM
IC50 (Cytochrome P450 2C9): > 20000 nM
IC50 (Cytochrome P450 2C19): > 20000 nM
IC50 (Cytochrome P450 2D6): > 20000 nM
Vdss [30]: 0.22 L/kg
F [31]: 81%
Vdss [32]: 0.26 L/kg
F [33]: 82%

NC(=O)c1ccc(Cc2ccccc2)cc1
inhibition [34]: Dose-dependent effect
IC50 [1]: 24000 nM
fIC50 [2]: 0.9 µM
Fu [35]: 1.8%
IC50 [4]: 2200 nM
inhibition (Homo sapiens): inactive

NC(=O)c1ccc(Cc2ccccc2)cc1-c1cccc(CC(=O)O)c1
IC50 [1]: 70 nM
fIC50 [2]: 0.04 µM
IC50 [3]: 1400 nM
IC50 [4]: 1100 nM

CCc1c(C(=O)C(N)=O)c2c(OCC(=O)O)cccc2n1Cc1ccccc1 [VARESPLADIB]
fIC50 [2]: 0.008 µM
Fu [35]: 12.5%
IC50 [3]: 120 nM

CC(Cc1cccc(-c2cc(Cc3ccccc3)ccc2C(N)=O)c1)C(=O)O (centres undefined)
IC50 [1]: 11 nM
fIC50 [2]: 0.001 µM
IC50 [3]: 70 nM
IC50 [4]: 750 nM
CLint [6]: 9.6 µL/min/1e6 cells
inhibition (INH) [7]: Not Active
